From patent US20240116985A1, “STAPLED PEPTIDES AND METHODS THEREOF” (priority 2020, published 2024)
Converted amounts (≈) assume the structure as drawn. Read-outs that look alike come from different tables or passages of the source.

Legend:
[1] = biological target: T1, full-length beta-Catenin (Uniprot ID P35222) (Homo sapiens, UniProt P35222); assay: Fluorescence polarization IC50 (beta-catenin / 5FAM-TCF4 10-53 competition); format: binding
T1 construct: 10 nM full-length beta-Catenin (Uniprot ID P35222)
T1 sequence (P35222 1-781): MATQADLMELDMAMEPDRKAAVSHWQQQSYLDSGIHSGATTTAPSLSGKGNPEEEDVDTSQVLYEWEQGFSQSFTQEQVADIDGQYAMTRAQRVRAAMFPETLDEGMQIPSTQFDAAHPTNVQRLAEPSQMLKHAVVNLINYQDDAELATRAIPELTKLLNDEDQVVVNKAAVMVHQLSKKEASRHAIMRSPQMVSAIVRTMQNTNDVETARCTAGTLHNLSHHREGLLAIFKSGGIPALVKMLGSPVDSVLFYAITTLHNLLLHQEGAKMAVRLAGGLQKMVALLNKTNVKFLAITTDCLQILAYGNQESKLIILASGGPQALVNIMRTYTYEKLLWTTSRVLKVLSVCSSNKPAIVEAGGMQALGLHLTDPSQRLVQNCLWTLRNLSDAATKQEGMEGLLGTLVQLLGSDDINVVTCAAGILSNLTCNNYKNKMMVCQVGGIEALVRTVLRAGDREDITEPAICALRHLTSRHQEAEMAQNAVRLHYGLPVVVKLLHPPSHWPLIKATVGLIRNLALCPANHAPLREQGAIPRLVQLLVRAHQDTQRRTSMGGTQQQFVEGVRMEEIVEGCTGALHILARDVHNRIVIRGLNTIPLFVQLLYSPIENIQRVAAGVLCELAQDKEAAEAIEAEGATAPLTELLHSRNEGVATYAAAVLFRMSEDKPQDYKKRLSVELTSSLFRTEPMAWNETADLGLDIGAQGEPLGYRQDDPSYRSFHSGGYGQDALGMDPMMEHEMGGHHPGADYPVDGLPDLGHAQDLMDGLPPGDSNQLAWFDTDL

CHI Log D procedure = format: physicochemical; details: for chromatographic logD: pH 7.4, CHI Log D; for CHI Log D: pH 7.4
Solubility in PBS = format: physicochemical
Outline: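 Steps: ultracentrifuge the peptide PBS solution, inject the supernatant on HPLC, inject a 50 μM peptide DMSO solution as reference, then calculate solubility as area ratio (PBS/DMSO) × 50 uM.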

[2] = fluorescence polarization, beta-catenin, read-out: FP EC50
[3] = fluorescence polarization, read-out: beta-Catenin FP IC50

SMILES | IC50 ([1]; read-out: beta-Catenin FP IC50) [nM] | chromatographic logD (CHI Log D procedure) | Solubility (Solubility in PBS) [µM] | IC50 [1, 2] [nM] | CHI Log D (CHI Log D procedure) | Solubility (Solubility in PBS; Solubility (uM)) [µM] | IC50 ([1]; read-out: FP EC50) [nM] | IC50 [1, 3] [nM]
CC(=O)N1CCC[C@]12CC=CCCCC1(CCCC=CCCCOC(=O)N3CC[C@@](C(=O)N[C@@H](Cc4ccsc4)C(=O)N[C@@H](Cc4csc5ccccc45)C(=O)N[C@@H](CCC(N)=O)C(N)=O)(C3)NC(=O)[C@H](CC(N)=O)NC(=O)[C@H](Cc3ccccc3)NC(=O)[C@H](C)NC(=O)[C@H](C)NC(=O)[C@H](CC(=O)O)NC(=O)[C@H](CC(=O)O)NC1=O)NC(=O)[C@H](CCC(C)C)NC(=O)[C@H](CC(=O)O)NC2=O (stereo partly drawn) [I-787, Ac-PL3-Asp-hLeu-B5-Asp-Asp-Ala-Ala-Phe-Asn-PyrS2-3Thi-BztA-Gln-NH2] | 5 | 2.08 | 50 (≈ 95.9 µg/mL) | – | – | – | – | –
CC(=O)N1CCC[C@]12CC=CCCCC1(CCCC=CCCCOC(=O)N3CC[C@@](C(=O)N[C@@H](Cc4ccsc4)C(=O)N[C@@H](Cc4csc5ccccc45)C(=O)N[C@@H](CO)C(N)=O)(C3)NC(=O)[C@H](CC(N)=O)NC(=O)[C@H](Cc3ccccc3)NC(=O)[C@H](C)NC(=O)[C@H](C)NC(=O)[C@H](CN(CC(=O)O)CC(F)(F)F)NC(=O)[C@H](CC(=O)O)NC1=O)NC(=O)[C@H](CC(C)(C)C)NC(=O)[C@H](CC(=O)O)NC2=O (stereo partly drawn) [I-940, Ac-PL3-Asp-Npg-B5-Asp-TfeGA-Ala-Ala-Phe-Asn-PyrS2-3Thi-BztA-Ser-NH2] | 1740 | – | 45 (≈ 89.5 µg/mL) | 1740 | 2.055 | – | – | –
CC(=O)N1CCC[C@]12CC=CCCCC1(CCCC=CCCCCCC[C@@](C)(C(=O)N[C@@H](Cc3ccccc3Cl)C(=O)N[C@@H](Cc3csc4ccccc34)C(=O)N[C@@H](CCC(N)=O)C(N)=O)NC(=O)[C@H](CO)NC(=O)[C@H](Cc3ccccc3)NC(=O)[C@H](C)NC(=O)[C@H](C)NC(=O)[C@H](CN(CC(=O)O)CC(F)(F)F)NC(=O)[C@H](CC(=O)O)NC1=O)NC(=O)[C@H](CC(C)(C)C)NC(=O)[C@H](CC(=O)O)NC2=O (stereo partly drawn) [I-995, Ac-PL3-Asp-Npg-B5-Asp-TfeGA-Ala-Ala-Phe-Ser-S8-2C1F-BztA-Gln-NH2] | 55 | 2.8 | – | – | – | 34 (≈ 67.6 µg/mL) | – | –
CC(=O)N1CCC[C@]12CC=CCCCC1(CCCC=CCCCOC(=O)N3CC[C@@](C(=O)N[C@@H](Cc4ccsc4)C(=O)N[C@@H](Cc4csc5ccccc45)C(=O)N[C@@H](CO)C(N)=O)(C3)NC(=O)[C@H](CC(C)C)NC(=O)[C@H](Cc3ccccc3)NC(=O)[C@H](C)NC(=O)[C@H](C)NC(=O)[C@H](Cc3cccc(C(=O)O)c3)NC(=O)[C@H](CC(=O)O)NC1=O)NC(=O)[C@H](CC(C)(C)C)NC(=O)[C@H](CC(=O)O)NC2=O (stereo partly drawn) [I-987, Ac-PL3-Asp-Npg-B5-Asp-3COOHF-Ala-Ala-Phe-Leu-PyrS2-3Thi-BztA-Ser-NH2] | 112 | – | 10 (≈ 19.5 µg/mL) | 112 | 2.115 | – | – | –
CC(=O)N1CCC[C@]12CC=CCCCC1(CCCC=CCOC(=O)N(C)CCC[C@@](C)(C(=O)N[C@@H](Cc3ccsc3)C(=O)N[C@@H](Cc3csc4ccccc34)C(=O)N[C@@H](Cc3c[nH]cn3)C(N)=O)NC(=O)[C@H](CC(N)=O)NC(=O)[C@H](Cc3ccccc3)NC(=O)[C@H](C)NC(=O)[C@H](C)NC(=O)[C@H](CC(=O)O)NC(=O)[C@H](CC(=O)O)NC1=O)NC(=O)[C@H](CC(C)(C)C)NC(=O)[C@H](CC(=O)O)NC2=O (stereo partly drawn) [I-774, Ac-PL3-Asp-Npg-B5-Asp-Asp-Ala-Ala-Phe-Asn-SeN-3Thi-BztA-His-NH2] | 38 | – | 46 (≈ 88.7 µg/mL) | – | 1.928 | – | 38 | –
CC(=O)N1CCC[C@]12CC=CCCCC1(CCCC=CCCCCCC[C@@](C)(C(=O)N[C@@H](Cc3ccsc3)C(=O)N[C@@H](Cc3csc4ccccc34)C(=O)N[C@@H](CCC(N)=O)C(N)=O)NC(=O)[C@H](CC(N)=O)NC(=O)[C@H](Cc3ccccc3)NC(=O)[C@H](C)NC(=O)[C@H](C)NC(=O)[C@H](CCC(=O)O)NC(=O)[C@H](CC(=O)O)NC1=O)NC(=O)[C@H](CC(C)(C)C)NC(=O)[C@H](CC(=O)O)NC2=O (stereo partly drawn) [I-682, Ac-PL3-Asp-Npg-B5-Asp-Glu-Ala-Ala-Phe-Asn-S8-3Thi-BztA-Gln-NH2] | – | – | 47 (≈ 88.8 µg/mL) | – | 2.409 | – | 41 | 41
CC(=O)N1CCC[C@]12CC=CCCCC1(CCCC=CCCCCCC[C@@](C)(C(=O)N[C@@H](Cc3ccccc3Cl)C(=O)N[C@@H](Cc3csc4ccccc34)C(=O)N[C@@H](CCO)C(N)=O)NC(=O)[C@H](CO)NC(=O)[C@H](Cc3ccccc3)NC(=O)[C@H](C)NC(=O)[C@H](C)NC(=O)[C@H](CN(CC(=O)O)CC(F)(F)F)NC(=O)[C@H](CC(=O)O)NC1=O)NC(=O)[C@H](CC(C)(C)C)NC(=O)[C@H](CC(=O)O)NC2=O (stereo partly drawn) [I-998, Ac-PL3-Asp-Npg-B5-Asp-TfeGA-Ala-Ala-Phe-Ser-S8-2C1F-BztA-Hse-NH2] | 127 | – | 43 (≈ 84.3 µg/mL) | 127 | 2.87 | – | – | –
CC(=O)N1CCC[C@]12CC=CCCCC1(CCCC=CCCCCCC[C@@](C)(C(=O)N[C@@H](Cc3ccccc3)C(=O)N[C@@H](Cc3csc4ccccc34)C(=O)N[C@@H](CCC(N)=O)C(N)=O)NC(=O)[C@H](CCC(N)=O)NC(=O)[C@H](Cc3ccccc3)NC(=O)[C@H](C)NC(=O)[C@H](C)NC(=O)[C@H](CCC(=O)O)NC(=O)[C@H](CC(=O)O)NC1=O)NC(=O)[C@H]([C@@H](C)O)NC(=O)[C@H](CC(=O)O)NC2=O (stereo partly drawn) [I-477, Ac-PL3-Asp-Thr-B5-Asp-Glu-Ala-Ala-Phe-Gln-S8-Phe-BztA-Gln-NH2] | – | 2 | – | – | – | 49 (≈ 91.7 µg/mL) | – | 119
CC[C@H](C)[C@@H]1NC(=O)[C@H](CC(=O)O)NC(=O)[C@]2(CC=CCCCC3(CCCC=CCCCCCC[C@@](C)(C(=O)N[C@@H](Cc4ccccc4)C(=O)N[C@@H](Cc4csc5ccccc45)C(=O)N[C@@H](CCC(N)=O)C(N)=O)NC(=O)[C@H](CCC(N)=O)NC(=O)[C@H](C(c4ccccc4)c4ccccc4)NC(=O)[C@H](C)NC(=O)[C@H](C)NC(=O)[C@H](CCC(=O)O)NC(=O)[C@H](CC(=O)O)NC3=O)NC1=O)CCCN2C(C)=O (stereo partly drawn) [I-725, Ac-PL3-Asp-Ile-B5-Asp-Glu-Ala-Ala-DipA-Gln-S8-Phe-BztA-Gln-NH2] | – | 2.61 | – | – | – | 42 (≈ 82.3 µg/mL) | – | 5000
CC(=O)N1CCC[C@]12CC=CCCCC1(CCCC=CCCCCCC[C@@](C)(C(=O)N[C@@H](Cc3ccccc3)C(=O)N[C@@H](Cc3csc4ccccc34)C(=O)N[C@@H](CCO)C(N)=O)NC(=O)[C@H](CCC(N)=O)NC(=O)[C@H](Cc3ccccc3)NC(=O)[C@H](C)NC(=O)[C@H](C)NC(=O)[C@H](CCC(=O)O)NC(=O)[C@H](CC(=O)O)NC1=O)NC(=O)[C@H](C)NC(=O)[C@H](CC(=O)O)NC2=O (stereo partly drawn) [I-491, Ac-PL3-Asp-Ala-B5-Asp-Glu-Ala-Ala-Phe-Gln-S8-Phe-BztA-Hse-NH2] | – | – | 39 (≈ 70.7 µg/mL) | – | 2.023 | – | 153 | 153
CC(=O)N1CCC[C@]12CC=CCCCC1(CCCC=CCCCOC(=O)N3CC[C@@](C(=O)N[C@@H](Cc4ccccc4Cl)C(=O)N[C@@H](Cc4csc5ccccc45)C(=O)N[C@@H](CO)C(N)=O)(C3)NC(=O)[C@H](CC(C)C)NC(=O)[C@H](Cc3ccccc3)NC(=O)[C@H](C)NC(=O)[C@H](C)NC(=O)[C@H](CC(=O)O)NC(=O)[C@H](CC(=O)O)NC1=O)NC(=O)[C@H](Cc1cccc3ccccc13)NC(=O)[C@H](CC(=O)O)NC2=O (stereo partly drawn) [I-1116, Ac-PL3-Asp-1NapA-B5-Asp-Asp-Ala-Ala-Phe-Leu-PyrS2-2C1F-BztA-Ser-NH2] | 40 | 2.62 | – | – | – | 13 (≈ 25.7 µg/mL) | – | –
CC(=O)N1CCC[C@]12CC=CCCCC1(CCCC=CCCCCCC[C@@](C)(C(=O)N[C@@H](Cc3ccsc3)C(=O)N[C@@H](Cc3csc4ccccc34)C(=O)N[C@@H](CCC(N)=O)C(N)=O)NC(=O)[C@H](CC(N)=O)NC(=O)[C@H](Cc3ccccc3)NC(=O)[C@H](C)NC(=O)[C@H](C)NC(=O)[C@H](CC(=O)O)NC(=O)[C@H](CC(=O)O)NC1=O)NC(=O)[C@H](CC(C)(C)C)NC(=O)C[C@H](CC(=O)O)NC2=O (stereo partly drawn) [I-1164, Ac-PL3-RbGlu-Npg-B5-Asp-Asp-Ala-Ala-Phe-Asn-S8-3Thi-BztA-Gln-NH2] | – | – | 50 (≈ 94.5 µg/mL) | 162 | 2.13 | – | – | 162
CC[C@@H]1NC(=O)[C@H](CC(=O)O)NC(=O)[C@]2(CC=CCCCC3(CCCC=CCCCCCC[C@@](C)(C(=O)N[C@@H](Cc4ccccc4)C(=O)N[C@@H](Cc4csc5ccccc45)C(=O)N[C@@H](Cc4c[nH]cn4)C(N)=O)NC(=O)[C@H](CC(N)=O)NC(=O)[C@H](Cc4ccccc4)NC(=O)[C@H](C)NC(=O)[C@H](C)NC(=O)[C@H](CC(=O)O)NC(=O)[C@H](CC(=O)O)NC3=O)NC1=O)CCCN2C(C)=O (stereo partly drawn) [I-575, Ac-PL3-Asp-Abu-B5-Asp-Asp-Ala-Ala-Phe-Asn-S8-Phe-BztA-His-NH2] | – | – | 46 (≈ 84.5 µg/mL) | – | 2.21 | – | 21 | 21
